Results reported in PubChem BioAssay (NCI).
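How tested: cells in 96-well plates exposed to compound for 48 hours at five concentrations. At the GI50, growth is halved. At the TGI there is no net growth.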

What was measured:
Assay in all cases: growth of human tumour cells (NCI), 48 h; in the data active = GI50 below about 0.43 µM; inactive = the rest
OVCAR-8 ovarian = test system: OVCAR-8 ovarian
SK-MEL-2 melanoma = test system: SK-MEL-2 melanoma
K-562 leukemia = test system: K-562 leukemia
SW-620 colon = test system: SW-620 colon
NCI-H522 lung = test system: NCI-H522 lung
RPMI-8226 leukemia = test system: RPMI-8226 leukemia
EKVX NSCLC = test system: EKVX NSCLC
UACC-257 melanoma = test system: UACC-257 melanoma
A498 renal = test system: A498 renal
SR leukemia = test system: SR leukemia
SK-MEL-5 melanoma = test system: SK-MEL-5 melanoma
TK-10 renal = test system: TK-10 renal
HCT-116 colon = test system: HCT-116 colon
ACHN renal = test system: ACHN renal
HL-60(TB) leukemia = test system: HL-60(TB) leukemia
A549 NSCLC = test system: A549 NSCLC
DU-145 prostate = test system: DU-145 prostate
SNB-75 CNS = test system: SNB-75 CNS
M14 melanoma = test system: M14 melanoma
MDA-MB-231 breast = test system: MDA-MB-231 breast
UACC-62 melanoma = test system: UACC-62 melanoma
SN12C renal = test system: SN12C renal
HOP-62 NSCLC = test system: HOP-62 NSCLC
CCRF-CEM leukemia = test system: CCRF-CEM leukemia
NCI/ADR-RES ovarian = test system: NCI/ADR-RES ovarian
NCI-H23 lung = test system: NCI-H23 lung
NCI-H460 lung = test system: NCI-H460 lung
OVCAR-5 ovarian = test system: OVCAR-5 ovarian
COLO 205 colon = test system: COLO 205 colon
HT29 colon = test system: HT29 colon
OVCAR-3 ovarian = test system: OVCAR-3 ovarian
SK-MEL-28 melanoma = test system: SK-MEL-28 melanoma
SF-539 CNS = test system: SF-539 CNS
T-47D breast = test system: T-47D breast
LOX IMVI melanoma = test system: LOX IMVI melanoma
SF-268 CNS = test system: SF-268 CNS
HS 578T breast = test system: HS 578T breast
PC-3 prostate = test system: PC-3 prostate
MOLT-4 leukemia = test system: MOLT-4 leukemia
CAKI-1 renal = test system: CAKI-1 renal
SNB-19 CNS = test system: SNB-19 CNS
UO-31 renal = test system: UO-31 renal
BT-549 breast = test system: BT-549 breast
SK-OV-3 ovarian = test system: SK-OV-3 ovarian
MDA-MB-435 = test system: MDA-MB-435
MALME-3M melanoma = test system: MALME-3M melanoma
HCT-15 colon = test system: HCT-15 colon
SF-295 CNS = test system: SF-295 CNS
786-0 renal = test system: 786-0 renal
KM12 colon = test system: KM12 colon
HCC-2998 colon = test system: HCC-2998 colon
U251 CNS = test system: U251 CNS
IGROV1 ovarian = test system: IGROV1 ovarian
NCI-H226 lung = test system: NCI-H226 lung
MCF7 breast = test system: MCF7 breast
RXF 393 renal = test system: RXF 393 renal
OVCAR-4 ovarian = test system: OVCAR-4 ovarian

S=c1sc2c(s1)SCc1cccc(n1)CSc1sc(=S)sc1SCc1cccc(n1)CS2
> 100 µM: TGI (OVCAR-8 ovarian) | TGI (SK-MEL-2 melanoma) | TGI (K-562 leukemia) | TGI (SW-620 colon) | TGI (NCI-H522 lung) | TGI (RPMI-8226 leukemia) | TGI (EKVX NSCLC) | TGI (UACC-257 melanoma) | TGI (A498 renal) | TGI (SR leukemia) | TGI (SK-MEL-5 melanoma) | TGI (TK-10 renal) | TGI (HCT-116 colon) | TGI (ACHN renal) | TGI (HL-60(TB) leukemia) | TGI (A549 NSCLC) | TGI (DU-145 prostate) | TGI (SNB-75 CNS) | TGI (M14 melanoma) | TGI (MDA-MB-231 breast) | TGI (UACC-62 melanoma) | TGI (SN12C renal) | TGI (HOP-62 NSCLC) | TGI (CCRF-CEM leukemia) | TGI (NCI/ADR-RES ovarian) | TGI (NCI-H23 lung) | TGI (NCI-H460 lung) | TGI (OVCAR-5 ovarian) | TGI (COLO 205 colon) | TGI (HT29 colon) | TGI (OVCAR-3 ovarian) | TGI (SK-MEL-28 melanoma) | TGI (SF-539 CNS) | TGI (T-47D breast) | TGI (LOX IMVI melanoma) | TGI (SF-268 CNS) | TGI (HS 578T breast) | TGI (PC-3 prostate) | TGI (MOLT-4 leukemia) | TGI (CAKI-1 renal) | TGI (SNB-19 CNS) | TGI (UO-31 renal) | TGI (BT-549 breast) | TGI (SK-OV-3 ovarian) | TGI (MDA-MB-435) | TGI (MALME-3M melanoma) | TGI (HCT-15 colon) | TGI (SF-295 CNS) | TGI (786-0 renal) | TGI (KM12 colon) | TGI (HCC-2998 colon) | TGI (U251 CNS) | TGI (IGROV1 ovarian) | TGI (NCI-H226 lung)

O=C(O)CN(CCN(CC(=O)O)CC(=O)O)CC(=O)O
> 100 µM: TGI (OVCAR-8 ovarian) | TGI (MCF7 breast) | TGI (SK-MEL-2 melanoma) | TGI (K-562 leukemia) | TGI (SW-620 colon) | TGI (NCI-H522 lung) | TGI (RPMI-8226 leukemia) | TGI (EKVX NSCLC) | TGI (UACC-257 melanoma) | TGI (SK-MEL-5 melanoma) | TGI (TK-10 renal) | TGI (HCT-116 colon) | TGI (ACHN renal) | TGI (A549 NSCLC) | TGI (DU-145 prostate) | TGI (SNB-75 CNS) | TGI (M14 melanoma) | TGI (MDA-MB-231 breast) | TGI (UACC-62 melanoma) | TGI (RXF 393 renal) | TGI (HOP-62 NSCLC) | TGI (CCRF-CEM leukemia) | TGI (NCI-H460 lung) | TGI (OVCAR-4 ovarian) | TGI (COLO 205 colon) | TGI (HT29 colon) | TGI (OVCAR-3 ovarian) | TGI (SK-MEL-28 melanoma) | TGI (SF-539 CNS) | TGI (T-47D breast) | TGI (LOX IMVI melanoma) | TGI (SF-268 CNS) | TGI (HS 578T breast) | TGI (PC-3 prostate) | TGI (MOLT-4 leukemia) | TGI (CAKI-1 renal) | TGI (SNB-19 CNS) | TGI (UO-31 renal) | TGI (BT-549 breast) | TGI (SK-OV-3 ovarian) | TGI (MDA-MB-435) | TGI (MALME-3M melanoma) | TGI (HCT-15 colon) | TGI (SF-295 CNS) | TGI (786-0 renal) | TGI (KM12 colon) | TGI (U251 CNS) | TGI (IGROV1 ovarian) | TGI (NCI-H226 lung)
inactive: GI50 (OVCAR-8 ovarian) > 100 µM | GI50 (MCF7 breast) > 100 µM | GI50 (SK-MEL-2 melanoma) > 100 µM | GI50 (K-562 leukemia) > 100 µM | GI50 (SW-620 colon) > 100 µM | GI50 (NCI-H522 lung) > 100 µM | GI50 (RPMI-8226 leukemia) > 100 µM | GI50 (EKVX NSCLC) > 100 µM | GI50 (UACC-257 melanoma) > 100 µM | GI50 (SK-MEL-5 melanoma) > 100 µM | GI50 (TK-10 renal) > 100 µM | GI50 (HCT-116 colon) > 100 µM | GI50 (ACHN renal) > 100 µM | GI50 (A549 NSCLC) > 100 µM | GI50 (DU-145 prostate) > 100 µM | GI50 (SNB-75 CNS) > 100 µM | GI50 (M14 melanoma) > 100 µM | GI50 (MDA-MB-231 breast) > 100 µM | GI50 (UACC-62 melanoma) > 100 µM | GI50 (RXF 393 renal) > 100 µM | GI50 (HOP-62 NSCLC) > 100 µM | GI50 (CCRF-CEM leukemia) > 100 µM | GI50 (NCI-H460 lung) > 100 µM | GI50 (OVCAR-4 ovarian) > 100 µM | GI50 (COLO 205 colon) > 100 µM | GI50 (HT29 colon) > 100 µM | GI50 (OVCAR-3 ovarian) > 100 µM | GI50 (SK-MEL-28 melanoma) > 100 µM | GI50 (SF-539 CNS) > 100 µM | GI50 (T-47D breast) > 100 µM | GI50 (LOX IMVI melanoma) > 100 µM | GI50 (SF-268 CNS) > 100 µM | GI50 (HS 578T breast) > 100 µM | GI50 (PC-3 prostate) > 100 µM | GI50 (MOLT-4 leukemia) > 100 µM | GI50 (CAKI-1 renal) > 100 µM | GI50 (SNB-19 CNS) > 100 µM | GI50 (UO-31 renal) > 100 µM | GI50 (BT-549 breast) > 100 µM | GI50 (SK-OV-3 ovarian) > 100 µM | GI50 (MDA-MB-435) > 100 µM | GI50 (MALME-3M melanoma) > 100 µM | GI50 (HCT-15 colon) > 100 µM | GI50 (SF-295 CNS) > 100 µM | GI50 (786-0 renal) > 100 µM | GI50 (KM12 colon) > 100 µM | GI50 (U251 CNS) > 100 µM | GI50 (IGROV1 ovarian) > 100 µM | GI50 (NCI-H226 lung) > 100 µM
